In US10130682B2, “Methods of using pigment epithelium derived factor (PEDF) for the treatment and prevention of agent-induced gonadal or uterine toxicity” (Ramot at Tel-Aviv University Ltd., priority 2014, dated 2018):

Legend:
PEDF mRNA [1] = experiment: PEDF mRNA level (qPCR) in ovaries of superovulated mice treated with DXR; format: in vivo, mouse; details: DXR 6 mg/kg IV vs saline; superovulated 7 weeks ICR female mice
Procedure: FIG. 1A is an illustration depicting the experimental setting: 7 weeks ICR female mice (n=5/group) were treated for superovulation with the standard pregnant mares' serum/human chorionic gonadotropin (PMSG/hCG) protocol [Ben-Aharon et al. Reproductive Biology and Endocrinology: RB&E (2010) 8: 20]. Twenty four hours post PMSG mice were administrated with DXR or saline (control). Ovaries were retrieved twenty four hours post hCG. […] Total RNA was extracted from the ovaries and changes in PEDF mRNA (relative quantification; RQ) level were measured by qPCR using specific primers for PEDF (SEQ ID NOs: 10-11); calibrated with HPRT (SEQ ID NOs: 6-7).
DXR damage was evaluated in 7 weeks ICR female mice following treatment for superovulation with pregnant mares' serum (PMSG, 7 IU) SC on day 0 and human chorionic gonadotropin (hCG, […]) SC on day 2. On day 1, mice were administered with DXR (6 mg/kg) or saline (control) IV. Mice ovaries were retrieved on day 3 (FIG. 1A). […]
Total RNA was isolated from various tissues (ovaries, eyes) or from granulosa cells, using Trizol reagent (Invitrogen) according to manufacturer's instructions, and quantified with the Nano-Drop spectrophotometer (ND-1000; Thermo Scientific). […] DNA was amplified using 1 μl RT reaction and 50 pmol gene-specific primers in ReadyMix™ mixture (Sigma). […]

LH-15 cells = experiment: MTT cell viability assay in LH-15 granulosa cells under H2O2; format: cell-based, rat; details: H2O2 100-500 μM, 24 hours, 2% serum
Procedure: (§1) Rat granulosa cell line LH-15 [Suh et al. J Cell Biol (1992) 119: 439-450] was cultured in hormone-free DMEM-F12 medium, supplemented with penicillin (100 IU/ml; Biological Industries), streptomycin ([…]; Biological Industries) and 10% charcoal-stripped fetal bovine serum (CS-FBS; Invitrogen) (culture medium), as described previously (Breckwoldt et al. 1996, Sasson & Amsterdam 2002). Cells were serum-starved for 16 hours (0.1% CS-FBS) prior to and during recombinant PEDF (rPEDF) stimulation or incubated in 2% CS-FBS during H2O2 stimulation.
Equal amount of LH-15 cells were seeded onto 6-well plates to a final volume of 500 μl. Following treatments, each well was incubated for 30 minutes with 10 μl of MTT [3-(4, 5-Dimethylthiazol-2-yl)-2, 5-diphenyltetrazolium bromide; 5 mg/ml] followed by an additional 2-4 hours incubation period at 37° C. The reaction was terminated by addition of 110 μl HCl (0.07 M in isopropanol) and OD 560 nm was measured by the SpectraMax 190 microplate reader ([…], Eugene, Oreg., USA).

SOD-1 = SOD-1 mRNA level (qPCR) in LH-15 cells under H2O2; format: cell-based, rat; details: H2O2 treatment alone, 24 hours
Procedure: as §1
(§2) Total RNA was isolated from various tissues (ovaries, eyes) or from granulosa cells, using Trizol reagent (Invitrogen) according to manufacturer's instructions, and quantified with the Nano-Drop spectrophotometer (ND-1000; Thermo Scientific). First-strand cDNA was produced by RT (Maxima™ Reverse transcriptase, Thermo Scientific) from a total of 1 μg RNA, using oligo-dt primers (Thermo Scientific). DNA was amplified using 1 μl RT reaction and 50 pmol gene-specific primers in ReadyMix™ mixture (Sigma). […] Changes in the level of expression of mRNA were detected by SYBR green reagent (SYBR® Green PCR Master Mix, ABI, Carlsbad, Calif., USA) along with 15 ng cDNA and specific primers, on a StepOnePlus Real-Time PCR System (Applied Biosystems, Foster City, Calif., USA).

GPX-1 = GPX-1 mRNA level (qPCR) in LH-15 cells under H2O2; format: cell-based, rat; details: H2O2 treatment alone, 24 hours
Procedure: as §1, §2

BAX = BAX protein level (western blot) in LH-15 cells under H2O2; format: cell-based, rat; details: H2O2 treatment alone, 24 hours
Procedure: as §1
Samples were homogenized in cold lysis buffer (20 mM HEPES, 150 mM NaCl and 0.2% Igepal; sigma) and centrifuged at 12,000 rpm, for 15 min, at 4° C.). Proteins were separated by sodium dodecyl sulfate polyacrylamide gel electrophoresis (SDS-PAGE; 10%; Bio-Rad, Israel). Separated proteins were transferred onto nitrocellulose membranes (Whatman GmbH, Germany) in a mini tank transfer unit (TE 22, Amersham, UK). Approximate molecular masses were determined by comparison with the migration of pre-stained protein standards (Bio-Rad). Blots were blocked for 1 hour in TBST (10 mM Tris-HCl, pH=8.0, 150 mM NaCl, 0.05% Tween 20) containing 5% skim-milk (Alba, N.Y., USA) followed by an over-night incubation at 4° C. with primary antibodies. […] Intensity of the protein bands was quantified by Image J […] (NIH).

PEDF mRNA [2] = experiment: PEDF mRNA level (qPCR) in LH-15 cells exposed to H2O2; format: cell-based, rat; details: H2O2, 24 hours
Procedure: as §1, §2

PEDF [3] = experiment: Uterine PEDF protein (western blot), sub-acute tamoxifen model; format: in vivo, mouse; details: tamoxifen daily for 7 days, increasing doses
OVX ICR mice = experiment: Uterine weight, prolonged tamoxifen model in ovariectomized mice; format: in vivo, mouse; details: tamoxifen 2.5 μg/mouse 5 days per week for one month
Procedure: (§3) DXR damage was evaluated in 7 weeks ICR female mice following treatment for superovulation with pregnant mares' serum (PMSG, 7 IU) SC on day 0 and human chorionic gonadotropin (hCG, […]) SC on day 2. On day 1, mice were administered with DXR (6 mg/kg) or saline (control) IV. Mice ovaries were retrieved on day 3 (FIG. 1A). The ability of rPEDF to overcome the destructive effect of DXR 7 weeks ICR female mice were treated with DXR (6 mg/kg) or saline (control) IV on day 0, rPEDF (2 mg/kg) or TRIS (control) was administered SC on day 1, followed by induction for superovulation with PMSG (7 IU) SC on day 4 and hCG (7 IU) SC on day 6. Mice ovaries were retrieved on day 7 (FIG. 2A). […] Mice uteri were excised at day 7. […] Mice treated with tamoxifen alone served as control. […] Mice treated with tamoxifen alone served as control.
(§4) At the end of each experiment, uteri were isolated, excised and weighed.

PEDF [4] = experiment: Uterine PEDF protein (western blot), prolonged tamoxifen model; format: in vivo; details: tamoxifen 2.5 μg/mouse 5 days per week for one month
PNPLA2 [5] = experiment: Uterine PNPLA2 mRNA (qPCR), sub-acute tamoxifen model; format: in vivo, mouse; details: sub-acute tamoxifen treatment
Procedure: DXR damage was evaluated in 7 weeks ICR female mice following treatment for superovulation with pregnant mares' serum (PMSG, 7 IU) SC on day 0 and human chorionic gonadotropin (hCG, […]) SC on day 2. On day 1, mice were administered with DXR (6 mg/kg) or saline (control) IV. Mice ovaries were retrieved on day 3 (FIG. 1A). […] Mice ovaries were retrieved on day 7 (FIG. 2A). […] Mice uteri were excised at day 7.
Total RNA was isolated from various tissues (ovaries, eyes) or from granulosa cells, using Trizol reagent (Invitrogen) according to manufacturer's instructions, and quantified with the Nano-Drop spectrophotometer (ND-1000; Thermo Scientific). First-strand cDNA was produced by RT (Maxima™ Reverse transcriptase, Thermo Scientific) from a total of 1 μg RNA, using oligo-dt primers (Thermo Scientific). DNA was amplified using 1 μl RT reaction and 50 pmol gene-specific primers in ReadyMix™ mixture (Sigma). Polymerase Chain Reaction (PCR) products were separated by 1.5% agarose gel electrophoresis and visualized by ethidium bromide staining. Changes in the level of expression of mRNA were detected by SYBR green reagent (SYBR® Green PCR Master Mix, ABI, Carlsbad, Calif., USA) along with 15 ng cDNA and specific primers, on a StepOnePlus Real-Time PCR System (Applied Biosystems, Foster City, Calif., USA).

VEGF [6] = experiment: Uterine VEGF protein (western blot), sub-acute tamoxifen model; format: in vivo, mouse; details: tamoxifen daily for 7 days, various concentrations
Procedure: as §3
(§5) Samples were homogenized in cold lysis buffer (20 mM HEPES, 150 mM NaCl and 0.2% Igepal; sigma) and centrifuged at 12,000 rpm, for 15 min, at 4° C.). Proteins were separated by sodium dodecyl sulfate polyacrylamide gel electrophoresis (SDS-PAGE; 10%; Bio-Rad, Israel). […] Approximate molecular masses were determined by comparison with the migration of pre-stained protein standards (Bio-Rad). […] Intensity of the protein bands was quantified by Image J […] (NIH).

ERα [7] = experiment: Uterine ERα mRNA (qPCR), prolonged tamoxifen model; format: in vivo, mouse; details: prolonged tamoxifen treatment
ERα [8] = experiment: Uterine ERα mRNA (qPCR), sub-acute tamoxifen model; format: in vivo, mouse; details: sub-acute tamoxifen treatment
[9] = system: progesterone receptor (PR); experiment: Uterine PR mRNA (qPCR), sub-acute tamoxifen model; format: in vivo, mouse; details: sub-acute tamoxifen treatment
VEGF [10] = experiment: Uterine VEGF protein (western blot), prolonged tamoxifen model; format: in vivo, mouse; details: tamoxifen 2.5 μg/mouse 5 days per week for one month
Procedure: as §3, §5

Laminin receptor [11] = experiment: Uterine Laminin receptor mRNA (qPCR), sub-acute tamoxifen model; format: in vivo, mouse; details: sub-acute tamoxifen treatment
[12] = system: ovariectomized (OVX) ICR mice; experiment: Uterine weight, sub-acute tamoxifen model in ovariectomized mice; format: in vivo, mouse; design: uterine weight: dose or concentration left out as unconfirmed; details: tamoxifen 0.3-3.3 daily for 7 days
Procedure: as §3, §4

PNPLA2 [13] = experiment: Uterine PNPLA2 mRNA (qPCR), prolonged tamoxifen model; format: in vivo, mouse; details: one month of tamoxifen treatment
CD34 = CD34 immunohistochemical staining of uterine blood vessels, prolonged tamoxifen model; format: in vivo, mouse; details: prolonged tamoxifen alone vs control
Procedure: as §3
Paraffin-embedded sections were deparaffinized, microwave heated while being subjected to an antigen retrieval agent (H-3300, Vector Laboratories Inc., Burlingame, Calif., USA), cooled on ice to room temperature, rinsed in PBS, incubated for 1 hour with PBSTg (0.2% Tween and gelatin in PBS), washed with PBS, blocked for 10 minutes in blocking solution (Cell Marque Corporation, Calif., USA) and incubated overnight with anti PNPLA2 or anti-CD34 primary antibodies. […]

Laminin receptor [14] = experiment: Uterine Laminin receptor mRNA (qPCR), prolonged tamoxifen model; format: in vivo, mouse; details: one month of tamoxifen treatment
[15] = system: progesterone receptor (PR); experiment: Uterine PR mRNA (qPCR), prolonged tamoxifen model; format: in vivo, mouse; details: prolonged tamoxifen treatment
Procedure: DXR damage was evaluated in 7 weeks ICR female mice following treatment for superovulation with pregnant mares' serum (PMSG, 7 IU) SC on day 0 and human chorionic gonadotropin (hCG, […]) SC on day 2. On day 1, mice were administered with DXR (6 mg/kg) or saline (control) IV. Mice ovaries were retrieved on day 3 (FIG. 1A). The ability of rPEDF to overcome the destructive effect of DXR 7 weeks ICR female mice were treated with DXR (6 mg/kg) or saline (control) IV on day 0, rPEDF (2 mg/kg) or TRIS (control) was administered SC on day 1, followed by induction for superovulation with PMSG (7 IU) SC on day 4 and hCG (7 IU) SC on day 6. Mice ovaries were retrieved on day 7 (FIG. 2A). […] Mice uteri were excised at day 7. […] Mice treated with tamoxifen alone served as control. […]
as §2, with “First-strand cDNA was produced by RT (Maxima™ Reverse transcriptase, Thermo Scientific) from a total of 1 μg RNA, using oligo-dt primers (Thermo Scientific).” left out

COc1cccc2c1C(=O)c1c(O)c3c(c(O)c1C2=O)C[C@@](O)(C(=O)CO)C[C@@H]3O[C@H]1C[C@H](N)[C@H](O)[C@H](C)O1 [DXR, Doxorubicin]
PEDF mRNA level in mice ovaries (PEDF mRNA [1]): significantly (P<0.05) reduced PEDF mRNA level

OO [H2O2]
cells viability (MTT) (LH-15 cells): statistically significant (P<0.05), dose dependent, decrease in cells viability | SOD-1 mRNA level (SOD-1): decreased | GPX-1 mRNA level (GPX-1): decreased | BAX level (BAX): elevated | PEDF mRNA level in LH-15 cells (PEDF mRNA [2]): significantly (P<0.01) reduced PEDF mRNA level, already at a concentration of 100 μM

CC/C(=C(\c1ccccc1)c1ccc(OCCN(C)C)cc1)c1ccccc1 [tamoxifen]
uterine PEDF protein expression (PEDF [3]): down-regulated | uterine weight (OVX ICR mice): increase in uterine weight | uterine PEDF protein level (PEDF [4]): down-regulation of PEDF protein level | PNPLA2 receptor mRNA level in uteri (PNPLA2 [5]): up-regulated | uterine VEGF protein level (VEGF [6]): up-regulated in a dose dependent manner | ERα mRNA expression in uteri (ERα [7]): up-regulated | ERα mRNA level in uteri (ERα [8]): up-regulated | PR mRNA level in uteri [9]: no significant effect | uterine VEGF protein level (VEGF [10]): up-regulation of VEGF protein level | Laminin receptor mRNA level in uteri (Laminin receptor [11]): up-regulated | uterine weight [12]: dose dependent increase | PNPLA2 level in uteri (PNPLA2 [13]): significantly increased | density of uterine blood vessels (CD34 staining) (CD34): remarkable increase in the density of uterine blood vessels | Laminin receptor level in uteri (Laminin receptor [14]): did not change significantly | PR expression in uteri [15]: no significant effect
